According to patent US20190209506A1, “METHODS OF REDUCING OR PREVENTING OXIDATION OF LDL OR LIPID MEMBRANES IN A SUBJECT IN NEED THEREOF” (Amarin Pharmaceuticals Ireland Limited, priority 2018, published 2019):
Values joined by “and” are separate entries in the source; they are usually repeats but may differ in a detail not shown here. Equal values may be shown once.

Legend:
[1] = system: Human sdLDL particles; test: Kinetic model of MDA formation in sdLDL oxidation (Example 15); format: biochemical
Method: Human sdLDL particles were isolated and incubated in vitro with vehicle or with varying concentrations of EPA, DHA, or EPA and DHA. Once incubated, copper sulfate (CuSO4) was added to induce oxidation of the sdLDL particles. The sdLDL particles were then assayed for the detection of malondialdehyde (MDA), a known marker of oxidation.
Various kinetic models were evaluated and eventually fit to the sdLDL oxidation data to describe the concentration of MDA in each sample. Both population parameter estimates and associated variabilities were generated for the formation of MDA (Kf) and degradation of MDA (Ke) rates.
The final kinetic model is a 1 compartment model having a first order Ke and an additive first order Kf.

[2] = system: HUVECs; test: NO and ONOO^− release from HUVECs exposed to oxLDL, nanosensors (Example 8); format: cell-based, human; details: ECs exposed to oxLDL; compared to vehicle
Method: Human umbilical vein endothelial cells (HUVECs) were isolated into primary cultures from female donors by Clonetics (San Diego, Calif.) and purchased as proliferating cells. All cell culture donors were healthy, with no pregnancy or prenatal complications. […] The confluent cells (4 to 5×10^5 cells/35 mm dish) were placed with minimum essential medium containing 3 mM L-arginine and 0.1 mM BH4 [(6R)-5,6,7,8-tetrahydrobiopterin]. Before experimental use, the cells (from second or third passage) were rinsed twice with Tyrode-HEPES buffer with 1.8 mM CaCl2.
Plasma was immediately separated by centrifugation at 3,000 g for 10 minutes at 4° C.
Tris-NaCl buffer was added to the dialyzed LDL to adjust the protein concentration to 30 mg/mL. A 1-mL aliquot of 20 μM CuSO4 was added to 1 mL of dialyzed normal LDL.
Concurrent measurements of NO and ONOO^− were performed with tandem electrochemical nanosensors combined into one working unit with a total diameter of 200-400 nm. Their design was based on previously developed and chemically modified carbon-fiber technology. […]
The amperometric method (with a response time of 0.1 ms) provides a quantitative signal (current) that is directly proportional to changes (from basal levels) in NO or ONOO^− concentration. […] Basal NO or ONOO^− levels were measured by differential pulse voltammetry in separate experiments. […]

[3] = LOOH formation in membrane vesicles, EPA dose dependence (Example 18); format: biochemical; details: after four hours
Source text: Iodometric analyses were used to measure LOOH formation in membrane vesicles reconstituted as binary mixtures of cholesterol and dilinoleoyl phosphatidylcholine.

[4] = system: human LDL; test: Copper-induced LDL oxidation, dose and time dependence, MDA (Example 17); format: biochemical
Method: LDL was isolated from human plasma by isopycnic centrifugation, separated into test samples of 100 μg/mL, and incubated at 37° C. for 30 min in the absence (vehicle) or presence of EPA over a range of concentrations of 1 to 10 μM. The samples were subsequently subjected to copper-induced oxidation. Following the copper-induced oxidation, LDL oxidation was measured over the course of six hours. Tables 8 and 9 enumerate the changes in MDA concentration expressed as molar equivalents for each of the vehicle and EPA test samples as a function of time (i.e., at 0 hours, 1 hour, 2 hours, 2.5 hours, and 3 hours).

Compound: CC/C=C\C/C=C\C/C=C\C/C=C\C/C=C\CCCC(=O)O [EPA, cis-5,8,11,14,17-eicosapentaenoic acid]
- reduction of Kf (formation rate of MDA) ([1]; 5 μM, after 8 hours): 54%
- reduction of Kf predicted by the kinetic model ([1]; 10 μM alone, predicted): 73%
- increase in NO release [2]: 45%
- inhibition of LOOH formation ([3]; 1.0 μM, 10 μM copper sulfate): 6%
- IC50 ([3]; read-out: half-maximum concentration of LOOH inhibition): ~6 µM
- inhibition of LOOH formation ([3]; maximum concentration (range 1.0 to 10.0 μM)): 74%
- MDA Equivalent ([4]; EPA 1.0 μM, 0 Hour): 0.24 µM and 0.26 µM
- MDA Equivalent ([4]; EPA 1.0 μM, 1 Hour): 3.85 µM and 3.14 µM and 2.87 µM
- MDA Equivalent ([4]; EPA 1.0 μM, 2 Hour): 10.33 µM and 10.92 µM and 10.63 µM
- MDA Equivalent ([4]; EPA 1.0 μM, 2.5 Hour): 10.60 µM and 10.92 µM and 10.65 µM
- MDA Equivalent ([4]; EPA 1.0 μM, 3 Hour): 9.44 µM and 9.95 µM and 9.93 µM
- MDA Equivalent ([4]; EPA 1.0 μM, 3.5 Hour): 10.13 µM and 10.87 µM
- MDA Equivalent ([4]; EPA 1.0 μM, 4 Hour): 8.93 µM and 9.39 µM
- MDA Equivalent ([4]; EPA 1.0 μM, 6 Hour): 9.79 µM and 10.10 µM
- MDA Equivalent ([4]; EPA 2.0 μM, 0 Hour): 0.25 µM and 0.26 µM and 0.19 µM
- MDA Equivalent ([4]; EPA 2.0 μM, 1 Hour): 1.15 µM and 1.04 µM
- MDA Equivalent ([4]; EPA 2.0 μM, 2 Hour): 7.34 µM and 7.35 µM and 7.67 µM
- MDA Equivalent ([4]; EPA 2.0 μM, 2.5 Hour): 9.45 µM and 9.62 µM and 9.60 µM
- MDA Equivalent ([4]; EPA 3.0 μM, 0 Hour): 0.21 µM and 0.22 µM
- MDA Equivalent ([4]; EPA 3.0 μM, 1 Hour): 0.56 µM and 0.57 µM and 0.53 µM
- MDA Equivalent ([4]; EPA 3.0 μM, 2 Hour): 1.72 µM and 1.78 µM and 1.74 µM
- MDA Equivalent ([4]; EPA 3.0 μM, 2.5 Hour): 3.09 µM and 3.01 µM and 2.91 µM
- MDA Equivalent ([4]; EPA 3.5 μM, 0 Hour): 0.17 µM and 0.26 µM and 0.29 µM
- MDA Equivalent ([4]; EPA 3.5 μM, 2 Hour): 1.04 µM and 1.05 µM and 0.90 µM
- MDA Equivalent ([4]; EPA 3.5 μM, 2.5 Hour): 1.16 µM and 1.43 µM and 0.95 µM
- MDA Equivalent ([4]; EPA 4.0 μM, 0 Hour): 0.19 µM and 0.21 µM and 0.22 µM
- MDA Equivalent ([4]; EPA 4.0 μM, 1 Hour): 0.37 µM and 0.41 µM and 0.40 µM
- MDA Equivalent ([4]; EPA 4.0 μM, 2 Hour): 1.00 µM and 0.78 µM and 0.71 µM
- MDA Equivalent ([4]; EPA 4.0 μM, 2.5 Hour): 1.26 µM and 0.94 µM and 0.80 µM
- MDA Equivalent ([4]; EPA 4.5 μM, 0 Hour): 0.28 µM and 0.17 µM and 0.18 µM
- MDA Equivalent ([4]; EPA 4.5 μM, 1 Hour): 0.28 µM and 0.30 µM and 0.21 µM
- MDA Equivalent ([4]; EPA 4.5 μM, 2 Hour): 0.38 µM and 0.50 µM and 0.44 µM
- MDA Equivalent ([4]; EPA 4.5 μM, 2.5 Hour): 0.36 µM and 0.19 µM and 0.31 µM
- MDA Equivalent ([4]; EPA 5.0 μM, 0 Hour): 0.19 µM and 0.26 µM and 0.27 µM
- MDA Equivalent ([4]; EPA 5.0 μM, 2 Hour): 0.35 µM and 0.33 µM and 0.30 µM
- MDA Equivalent ([4]; EPA 5.0 μM, 2.5 Hour): 0.22 µM and 0.24 µM and 0.21 µM
- MDA Equivalent ([4]; EPA 10.0 μM, 0 Hour): 0.21 µM and 0.24 µM and 0.29 µM
- MDA Equivalent ([4]; EPA 10.0 μM, 1 Hour): 0.12 µM and 0.06 µM
- MDA Equivalent ([4]; EPA 10.0 μM, 2 Hour): 0.27 µM and 0.29 µM and 0.23 µM
- MDA Equivalent ([4]; EPA 10.0 μM, 2.5 Hour): 0.01 µM and 0.02 µM
- inhibition of LDL oxidation ([4]; above 7.0 μM, through 6 hours): > 88%
- IC50 ([4]; at 6 hours, read-out: half-maximum concentration of inhibition of LDL oxidation): 5 µM
- time up to which oxidation was inhibited ([4]; concentrations ≤3 μM): up to 4 hours
